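96-well plates; 48 h exposure; 5 concentrations. Endpoints by linear interpolation between flanking doses. Not reached: highest tested concentration assigned. Here, GI50 denotes the concentration required for 50% inhibition of growth. At the TGI there is no net growth.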
What was measured:
Experiment in all cases: growth of human tumour cells (NCI), 48 h
IGROV1 ovarian = test system: IGROV1 ovarian
NCI-H460 lung = test system: NCI-H460 lung
TK-10 renal = test system: TK-10 renal
UACC-62 melanoma = test system: UACC-62 melanoma
OVCAR-5 ovarian = test system: OVCAR-5 ovarian
DU-145 prostate = test system: DU-145 prostate
NCI/ADR-RES ovarian = test system: NCI/ADR-RES ovarian
RXF 393 renal = test system: RXF 393 renal
SK-MEL-28 melanoma = test system: SK-MEL-28 melanoma
BT-549 breast = test system: BT-549 breast
CCRF-CEM leukemia = test system: CCRF-CEM leukemia
MOLT-4 leukemia = test system: MOLT-4 leukemia
786-0 renal = test system: 786-0 renal
NCI-H522 lung = test system: NCI-H522 lung
NCI-H23 lung = test system: NCI-H23 lung
U251 CNS = test system: U251 CNS
SK-OV-3 ovarian = test system: SK-OV-3 ovarian
EKVX NSCLC = test system: EKVX NSCLC
HS 578T breast = test system: HS 578T breast
RPMI-8226 leukemia = test system: RPMI-8226 leukemia
NCI-H226 lung = test system: NCI-H226 lung
SNB-19 CNS = test system: SNB-19 CNS
SR leukemia = test system: SR leukemia
HOP-62 NSCLC = test system: HOP-62 NSCLC
LOX IMVI melanoma = test system: LOX IMVI melanoma
MALME-3M melanoma = test system: MALME-3M melanoma
SW-620 colon = test system: SW-620 colon
SNB-75 CNS = test system: SNB-75 CNS
A498 renal = test system: A498 renal
MDA-MB-435 = test system: MDA-MB-435
T-47D breast = test system: T-47D breast
SK-MEL-2 melanoma = test system: SK-MEL-2 melanoma
HL-60(TB) leukemia = test system: HL-60(TB) leukemia
HCT-116 colon = test system: HCT-116 colon
SN12C renal = test system: SN12C renal
SK-MEL-5 melanoma = test system: SK-MEL-5 melanoma
MCF7 breast = test system: MCF7 breast
PC-3 prostate = test system: PC-3 prostate
A549 NSCLC = test system: A549 NSCLC
K-562 leukemia = test system: K-562 leukemia
OVCAR-3 ovarian = test system: OVCAR-3 ovarian
SF-268 CNS = test system: SF-268 CNS
HT29 colon = test system: HT29 colon
COLO 205 colon = test system: COLO 205 colon
SF-295 CNS = test system: SF-295 CNS
MDA-MB-231 breast = test system: MDA-MB-231 breast
UO-31 renal = test system: UO-31 renal
KM12 colon = test system: KM12 colon
M14 melanoma = test system: M14 melanoma
HCC-2998 colon = test system: HCC-2998 colon
SF-539 CNS = test system: SF-539 CNS
ACHN renal = test system: ACHN renal
HCT-15 colon = test system: HCT-15 colon
OVCAR-4 ovarian = test system: OVCAR-4 ovarian
HOP-92 NSCLC = test system: HOP-92 NSCLC
UACC-257 melanoma = test system: UACC-257 melanoma
OVCAR-8 ovarian = test system: OVCAR-8 ovarian
CAKI-1 renal = test system: CAKI-1 renal

For CNc1ccccc1S(=O)(=O)c1ccccc1[N+](=O)[O-], the TGI (IGROV1 ovarian) was greater than 100 µM, the TGI (NCI-H460 lung) was greater than 100 µM and the TGI (TK-10 renal) was greater than 100 µM. It also gave a TGI (UACC-62 melanoma) greater than 100 µM, a TGI (OVCAR-5 ovarian) greater than 100 µM and a TGI (DU-145 prostate) greater than 100 µM. The TGI (NCI/ADR-RES ovarian) was greater than 100 µM, the TGI (RXF 393 renal) was greater than 100 µM and the TGI (SK-MEL-28 melanoma) was greater than 100 µM. The TGI (BT-549 breast) was 65.3 µM, the TGI (CCRF-CEM leukemia) was greater than 100 µM and the TGI (MOLT-4 leukemia) was greater than 100 µM. The TGI (786-0 renal) was greater than 100 µM, the TGI (NCI-H522 lung) was greater than 100 µM and the TGI (NCI-H23 lung) was greater than 100 µM. For the same molecule, the TGI (U251 CNS) was greater than 100 µM, the TGI (SK-OV-3 ovarian) was greater than 100 µM and the TGI (EKVX NSCLC) was greater than 100 µM. The TGI (HS 578T breast) was greater than 100 µM, the TGI (RPMI-8226 leukemia) was greater than 100 µM and the TGI (NCI-H226 lung) was greater than 100 µM. It also gave a TGI (SNB-19 CNS) greater than 100 µM, a TGI (SR leukemia) greater than 100 µM and a TGI (HOP-62 NSCLC) greater than 100 µM. It also gave a TGI (LOX IMVI melanoma) greater than 100 µM, a TGI (MALME-3M melanoma) greater than 100 µM and a TGI (SW-620 colon) greater than 100 µM. The TGI (SNB-75 CNS) was greater than 100 µM, the TGI (A498 renal) was greater than 100 µM and the TGI (MDA-MB-435) was greater than 100 µM. It also gave a TGI (T-47D breast) greater than 100 µM, a TGI (SK-MEL-2 melanoma) greater than 100 µM and a TGI (HL-60(TB) leukemia) greater than 100 µM. For the same molecule, the TGI (HCT-116 colon) was greater than 100 µM, the TGI (SN12C renal) was greater than 100 µM and the TGI (SK-MEL-5 melanoma) was greater than 100 µM. For the same molecule, the TGI (MCF7 breast) was greater than 100 µM, the TGI (PC-3 prostate) was greater than 100 µM and the TGI (A549 NSCLC) was greater than 100 µM. The TGI (K-562 leukemia) was greater than 100 µM, the TGI (OVCAR-3 ovarian) was greater than 100 µM and the TGI (SF-268 CNS) was greater than 100 µM. For the same molecule, the TGI (HT29 colon) was greater than 100 µM, the TGI (COLO 205 colon) was greater than 100 µM and the TGI (SF-295 CNS) was greater than 100 µM. The TGI (MDA-MB-231 breast) was greater than 100 µM, the TGI (UO-31 renal) was greater than 100 µM and the TGI (KM12 colon) was greater than 100 µM. It also gave a TGI (M14 melanoma) greater than 100 µM, a TGI (HCC-2998 colon) greater than 100 µM and a TGI (SF-539 CNS) greater than 100 µM. It also gave a TGI (ACHN renal) greater than 100 µM, a TGI (HCT-15 colon) greater than 100 µM and a TGI (OVCAR-4 ovarian) greater than 100 µM.

Work on C=C1C(O)C2C(=C(CC(C)C)C13CC3)C(=O)C(C)(C)C2O (stereo not given) yielded a GI50 (IGROV1 ovarian) greater than 100 µM, a TGI (IGROV1 ovarian) greater than 100 µM and a GI50 (NCI-H460 lung) greater than 100 µM. For the same molecule, the TGI (NCI-H460 lung) was greater than 100 µM, the GI50 (TK-10 renal) was greater than 100 µM and the TGI (TK-10 renal) was greater than 100 µM. For the same molecule, the GI50 (UACC-62 melanoma) was greater than 100 µM, the TGI (UACC-62 melanoma) was greater than 100 µM and the GI50 (OVCAR-5 ovarian) was greater than 100 µM. For the same molecule, the TGI (OVCAR-5 ovarian) was greater than 100 µM, the GI50 (DU-145 prostate) was greater than 100 µM and the TGI (DU-145 prostate) was greater than 100 µM. For the same molecule, the GI50 (NCI/ADR-RES ovarian) was greater than 100 µM, the TGI (NCI/ADR-RES ovarian) was greater than 100 µM and the GI50 (RXF 393 renal) was greater than 100 µM. For the same molecule, the TGI (RXF 393 renal) was greater than 100 µM, the GI50 (SK-MEL-28 melanoma) was greater than 100 µM and the TGI (SK-MEL-28 melanoma) was greater than 100 µM. For the same molecule, the GI50 (BT-549 breast) was greater than 100 µM, the TGI (BT-549 breast) was greater than 100 µM and the GI50 (CCRF-CEM leukemia) was greater than 100 µM. The TGI (CCRF-CEM leukemia) was greater than 100 µM, the GI50 (786-0 renal) was greater than 100 µM and the TGI (786-0 renal) was greater than 100 µM. It also gave a GI50 (NCI-H522 lung) greater than 100 µM, a TGI (NCI-H522 lung) greater than 100 µM and a GI50 (NCI-H23 lung) greater than 100 µM. For the same molecule, the TGI (NCI-H23 lung) was greater than 100 µM, the GI50 (U251 CNS) was greater than 100 µM and the TGI (U251 CNS) was greater than 100 µM. For the same molecule, the GI50 (SK-OV-3 ovarian) was greater than 100 µM, the TGI (SK-OV-3 ovarian) was greater than 100 µM and the GI50 (EKVX NSCLC) was greater than 100 µM. It also gave a TGI (EKVX NSCLC) greater than 100 µM, a GI50 (HS 578T breast) greater than 100 µM and a TGI (HS 578T breast) greater than 100 µM. It also gave a GI50 (RPMI-8226 leukemia) of 42.1 µM, a TGI (RPMI-8226 leukemia) greater than 100 µM and a GI50 (NCI-H226 lung) greater than 100 µM. For the same molecule, the TGI (NCI-H226 lung) was greater than 100 µM, the GI50 (SNB-19 CNS) was greater than 100 µM and the TGI (SNB-19 CNS) was greater than 100 µM. For the same molecule, the GI50 (HOP-92 NSCLC) was greater than 100 µM, the TGI (HOP-92 NSCLC) was greater than 100 µM and the GI50 (SR leukemia) was greater than 100 µM. For the same molecule, the TGI (SR leukemia) was greater than 100 µM, the GI50 (HOP-62 NSCLC) was greater than 100 µM and the TGI (HOP-62 NSCLC) was greater than 100 µM. It also gave a GI50 (LOX IMVI melanoma) greater than 100 µM, a TGI (LOX IMVI melanoma) greater than 100 µM and a GI50 (MALME-3M melanoma) of 89.9 µM. It also gave a TGI (MALME-3M melanoma) greater than 100 µM, a GI50 (SW-620 colon) greater than 100 µM and a TGI (SW-620 colon) greater than 100 µM. It also gave a GI50 (A498 renal) greater than 100 µM, a TGI (A498 renal) greater than 100 µM and a GI50 (MDA-MB-435) greater than 100 µM. The TGI (MDA-MB-435) was greater than 100 µM, the GI50 (T-47D breast) was greater than 100 µM and the TGI (T-47D breast) was greater than 100 µM. For the same molecule, the GI50 (SK-MEL-2 melanoma) was greater than 100 µM, the TGI (SK-MEL-2 melanoma) was greater than 100 µM and the GI50 (UACC-257 melanoma) was greater than 100 µM. It also gave a TGI (UACC-257 melanoma) greater than 100 µM, a GI50 (HCT-116 colon) greater than 100 µM and a TGI (HCT-116 colon) greater than 100 µM. The GI50 (OVCAR-8 ovarian) was greater than 100 µM, the TGI (OVCAR-8 ovarian) was greater than 100 µM and the GI50 (CAKI-1 renal) was greater than 100 µM. The TGI (CAKI-1 renal) was greater than 100 µM, the GI50 (SK-MEL-5 melanoma) was greater than 100 µM and the TGI (SK-MEL-5 melanoma) was greater than 100 µM. For the same molecule, the GI50 (MCF7 breast) was greater than 100 µM, the TGI (MCF7 breast) was greater than 100 µM and the GI50 (PC-3 prostate) was greater than 100 µM. It also gave a TGI (PC-3 prostate) greater than 100 µM, a GI50 (A549 NSCLC) greater than 100 µM and a TGI (A549 NSCLC) greater than 100 µM. The GI50 (K-562 leukemia) was 0.859 µM, the TGI (K-562 leukemia) was greater than 100 µM and the GI50 (OVCAR-3 ovarian) was 75.8 µM. For the same molecule, the TGI (OVCAR-3 ovarian) was greater than 100 µM, the GI50 (SF-268 CNS) was greater than 100 µM and the TGI (SF-268 CNS) was greater than 100 µM. For the same molecule, the GI50 (HT29 colon) was greater than 100 µM, the TGI (HT29 colon) was greater than 100 µM and the GI50 (COLO 205 colon) was greater than 100 µM. For the same molecule, the TGI (COLO 205 colon) was greater than 100 µM, the GI50 (SF-295 CNS) was greater than 100 µM and the TGI (SF-295 CNS) was greater than 100 µM. For the same molecule, the GI50 (MDA-MB-231 breast) was greater than 100 µM, the TGI (MDA-MB-231 breast) was greater than 100 µM and the GI50 (UO-31 renal) was greater than 100 µM. For the same molecule, the TGI (UO-31 renal) was greater than 100 µM, the GI50 (KM12 colon) was greater than 100 µM and the TGI (KM12 colon) was greater than 100 µM. For the same molecule, the GI50 (M14 melanoma) was greater than 100 µM, the TGI (M14 melanoma) was greater than 100 µM and the GI50 (SF-539 CNS) was greater than 100 µM. The TGI (SF-539 CNS) was greater than 100 µM, the GI50 (ACHN renal) was greater than 100 µM and the TGI (ACHN renal) was greater than 100 µM. For the same molecule, the GI50 (HCT-15 colon) was greater than 100 µM, the TGI (HCT-15 colon) was greater than 100 µM and the GI50 (OVCAR-4 ovarian) was greater than 100 µM. It also gave a TGI (OVCAR-4 ovarian) greater than 100 µM.
